Measured values taken from ChEMBL document CHEMBL5390265, “Design, Synthesis, and Pharmacological Evaluation of Multisubstituted Pyrido[4,3-d]pyrimidine Analogues Bearing Deuterated Methylene Linkers as Potent KRASG12D Inhibitors” (J Med Chem, 2023).

Legend:
ASPC1 = experiment: Antiproliferative activity against human ASPC1 cells harboring […] assessed as inhibition of cell growth incubated for 5 days by crystal violet staining analysis; type: functional, cell-based
AGS = experiment: Antiproliferative activity against human AGS cells harboring […] assessed as inhibition of cell growth incubated for 5 days by crystal violet staining analysis; type: functional, cell-based
A549 = experiment: Antiproliferative activity against human A549 cells harboring […] assessed as inhibition of cell growth incubated for 5 days by crystal violet staining analysis; type: functional, cell-based
NCI-H1299 = experiment: Antiproliferative activity against human NCI-H1299 cells harboring KRAS wild type assessed as inhibition of cell growth incubated for 5 days by crystal violet staining analysis; type: functional, cell-based; details: NCI-H1299, 120 h
[1] = Inhibition of recombinant human His6-tagged KRAS4B G12D mutant incubated for 1 hr by HTRF assay
GTPase KRas [2] = target: T1, GTPase KRas (Homo sapiens, UniProt P01116); experiment: Inhibition of recombinant human GTP-bound KRAS wild type (1 to 169 residues) incubated for 1 hr by HTRF assay
[3] = Half life in Sprague-Dawley rat at 1 mg/kg,iv measured upto 24 hrs by LC-MS/MS analysis; type: ADME, organism-based; details: in vivo
[4] = AUC in Sprague-Dawley rat at 1 mg/kg,iv measured upto 24 hrs by LC-MS/MS analysis; type: ADME, organism-based; set-up: dose 1 mg/kg, time < 24 hrs, route iv; details: in vivo
[5] = Clearance in Sprague-Dawley rat at 1 mg/kg,iv measured upto 24 hrs by LC-MS/MS analysis; type: ADME, organism-based; details: in vivo
GTPase KRas [6] = target: T1, GTPase KRas; experiment: Inhibition of KRAS in human ASPC1 cells assessed as downregulation of ERK phosphorylation incubated for 3 hrs by immunoblotting analysis; type: cell-based; details: tested as the 2H-labelled form
GTPase KRas [7] = target: T1, GTPase KRas; experiment: Inhibition of KRAS in human ASPC1 cells assessed as downregulation of AKT phosphorylation incubated for 3 hrs by immunoblotting analysis; type: cell-based; details: tested as the 2H-labelled form
GTPase KRas [8] = target: T1, GTPase KRas; experiment: Inhibition of KRAS in human AGS cells assessed as downregulation of ERK phosphorylation incubated for 3 hrs by immunoblotting analysis; type: cell-based; details: tested as the 2H-labelled form
GTPase KRas [9] = target: T1, GTPase KRas; experiment: Inhibition of KRAS in human AGS cells assessed as downregulation of AKT phosphorylation incubated for 3 hrs by immunoblotting analysis; type: cell-based; details: tested as the 2H-labelled form

Structure (SMILES)	IC50 (ASPC1; Homo sapiens, ASPC1, 120 h) [nM]	IC50 (AGS; Homo sapiens, AGS, 120 h) [nM]	IC50 (A549; Homo sapiens, A549, 120 h) [nM]	IC50 (NCI-H1299) [µM]	also measured
C#Cc1c(F)ccc2cc(O)cc(-c3ncc4c(N5C[C@H]6CC[C@@H](C5)N6)nc(OC[C@]56CCCN5[C@@H](COC(=O)N5CCS(=O)(=O)CC5)CC6)nc4c3F)c12 (racemic)	> 50	> 50	> 5000	> 5	–
C#Cc1c(F)ccc2cc(O)cc(-c3ncc4c(N5C[C@H]6CC[C@@H](C5)N6)nc(OC[C@]56CCCN5[C@@H](Cn5cc(COCCOC)nn5)CC6)nc4c3F)c12 (racemic)	> 50	> 50	> 5000	> 5	–
C#Cc1c(F)ccc2cc(O)cc(-c3ncc4c(N5C[C@H]6CC[C@@H](C5)N6)nc(NCCCn5cc(COCC67CCCN6CC(=C)C7)nn5)nc4c3F)c12 (some centres not stated)	> 50	> 50	> 5000	> 5	–
[2H]C([2H])(Oc1nc(N2C[C@H]3CC[C@@H](C2)N3)c2cnc(-c3cccc4c(F)cc(F)c(C#C)c34)c(F)c2n1)C12CCCN1CC(=C(F)F)C2 (some centres not stated)	> 50	> 50	> 5000	> 5	–
C#Cc1c(F)ccc2cc(O)cc(-c3ncc4c(N5C[C@H]6CC[C@@H](C5)N6)nc(OC[C@]56CCCN5[C@@H](Cn5cc(C(C)(C)O)nn5)CC6)nc4c3F)c12 (racemic)	> 50	> 50	> 5000	> 5	–
[2H]C([2H])(Oc1nc(N2C[C@H]3CC[C@@H](C2)N3)c2cnc(-c3cc(O)cc4ccc(F)c(C#C)c34)c(F)c2n1)C12CC(=C)CN1C[C@H](F)C2 (some centres not stated)	1.6	0.8	2160	> 5	–
[2H]C([2H])(Oc1nc(N2C[C@H]3CC[C@@H](C2)N3)c2cnc(-c3cc(O)cc4ccc(F)c(C#C)c34)c(F)c2n1)C12CC(=C)CN1CC1(CC1)C2 (some centres not stated)	3.9	1.1	944	3.02	–
C#Cc1c(F)ccc2cc(O)cc(-c3ncc4c(N5C[C@H]6CC[C@@H](C5)N6)nc(OCC56CCCN5CC(=C)C6)nc4c3F)c12 (some centres not stated)	4.6	1.4	2220	> 5	–
C#Cc1c(F)ccc2cc(O)cc(-c3ncc4c(N5C[C@H]6CC[C@@H](C5)N6)nc(OCCn5cc(COCC67CCCN6CC(=C)C7)nn5)nc4c3F)c12 (some centres not stated)	> 50	> 50	> 5000	> 5	–
C#Cc1c(F)ccc2cc(O)cc(-c3ncc4c(N5C[C@H]6CC[C@@H](C5)N6)nc(OC[C@H]5CC6CCN5C[C@@H]6C=C)nc4c3F)c12	> 50	> 50	> 5000	> 5	–
[2H]C([2H])(Oc1nc(N2C[C@H]3CC[C@@H](C2)N3)c2cnc(-c3cccc4cc(F)c(F)c(C#C)c34)c(F)c2n1)C12CCCN1CC(=C(F)F)C2 (some centres not stated)	> 50	> 50	> 5000	> 5	–
[2H]C([2H])(Oc1nc(N2C[C@H]3CC[C@@H](C2)N3)c2cnc(-c3c(Cl)c(C)cc4[nH]ncc34)c(F)c2n1)C12CCCN1CC(=C(F)F)C2 (some centres not stated)	> 50	> 50	> 5000	> 5	–
C#CCN(C)C(=O)OC[C@@H]1CC[C@]2(COc3nc(N4C[C@H]5CC[C@@H](C4)N5)c4cnc(-c5cc(O)cc6ccc(F)c(C#C)c56)c(F)c4n3)CCCN12	23.9	15.4	1020	> 5	–
C#CCN(C)C(=O)OC[C@H]1CC[C@@]2(COc3nc(N4C[C@H]5CC[C@@H](C4)N5)c4cnc(-c5cc(O)cc6ccc(F)c(C#C)c56)c(F)c4n3)CCCN12	–	–	–	–	IC50 (ASPC1; aspc1): 207 nM; IC50 (AGS; ags): 59.3 nM; IC50 (A549; a549): > 5000 nM
C#CCN(C)C(=O)OC[C@H]1CC[C@@]2(COc3nc(N4C[C@H]5CC[C@@H](C4)N5)c4cnc(-c5cc(O)cc6ccc(F)c(C#C)c56)c(F)c4n3)CCCN12 (racemic)	–	–	–	> 5	IC50 (ASPC1; aspc1): 39.4 nM; IC50 (AGS; ags): 25.5 nM; IC50 (A549; a549): 1760 nM
[2H]C([2H])(Oc1nc(N2C[C@H]3CC[C@@H](C2)N3)c2cnc(-c3cc(O)cc4ccc(F)c(C#C)c34)c(F)c2n1)C12CC(=C)CN1CC(=C)C2	1.3	0.4	559	2.01	–

Structure (SMILES)	IC50 (ASPC1; Homo sapiens, ASPC1, 120 h) [nM]	IC50 (AGS; Homo sapiens, AGS, 120 h) [nM]	IC50 (A549; Homo sapiens, A549, 120 h) [nM]	IC50 (NCI-H1299) [µM]	also measured
[2H]C([2H])(Oc1nc(N2C[C@H]3CC[C@@H](C2)N3C)c2cnc(-c3cc(O)cc4ccc(F)c(C#C)c34)c(F)c2n1)C12CCCN1CC(=C(F)F)C2 (some centres not stated)	> 50	> 50	> 5000	> 5	–
[2H]C(Oc1nc(N2C[C@H]3CC[C@@H](C2)N3)c2cnc(-c3cc(O)cc4ccc(F)c(C#C)c34)c(F)c2n1)C12CCCN1CC(=C)C2 (some centres not stated)	2.1	1.3	731	> 5	–
[2H]C([2H])(Oc1nc(N2C[C@H]3CC[C@@H](C2)N3)c2cnc(-c3cc(N)cc4cccc(C#C)c34)c(F)c2n1)C12CCCN1CC(=C(F)F)C2 (some centres not stated)	2	1.2	2180	2.5	–
[2H]C([2H])(Oc1nc(N2CCC(N(C)C)C2)c2cnc(-c3cc(O)cc4ccc(F)c(C#C)c34)c(F)c2n1)C12CCCN1CC(=C(F)F)C2 (configuration not stated)	> 50	> 50	> 5000	> 5	–
C#Cc1c(F)ccc2cc(O)cc(-c3ncc4c(N5C[C@H]6CC[C@@H](C5)N6)nc(OC[C@]56CCCN5[C@@H](Cn5cc(CCC#N)nn5)CC6)nc4c3F)c12 (racemic)	> 50	> 50	> 5000	> 5	–
[2H]C([2H])(Oc1nc(NCC23CCCN2CCC3)c2cnc(-c3cc(O)cc4ccc(F)c(C#C)c34)c(F)c2n1)C12CCCN1CC(=C(F)F)C2 (configuration not stated)	> 50	> 50	> 5000	> 5	–
C#Cc1c(F)ccc2cc(O)cc(-c3ncc4c(N5C[C@H]6CC[C@@H](C5)N6)nc(OC(C)C56CCCN5CC(=C)C6)nc4c3F)c12 (some centres not stated)	> 50	> 50	4500	> 5	–
[2H]C([2H])(Oc1nc(N2C[C@H]3CC[C@@H](C2)N3)c2cnc(-c3cccc4ccc(F)c(C#C)c34)c(F)c2n1)C12CCCN1CC(=C(F)F)C2 (some centres not stated)	23.7	22.5	1090	1.41	IC50 [1]: 2.21 nM; IC50 (GTPase KRas [2]): 20.3 nM
[2H]C([2H])(Oc1nc(NCC2(N(C)C)CCC2)c2cnc(-c3cc(N)cc4ccc(F)c(C#C)c34)c(F)c2n1)C12CCCN1CC(=C(F)F)C2 (configuration not stated)	28.4	12	700	> 5	half-life [3]: 565 min; AUC at 24 h [4]: 218 ng·h/mL; clearance [5]: 81.1 mL/min/kg
C#Cc1c(F)ccc2cc(O)cc(-c3ncc4c(N5C[C@H]6CC[C@@H](C5)N6)nc(OC[C@]56CCCN5[C@@H](COC(=O)NCC57C[C@H]8C[C@@H](C5)C[C@@H](C7)C8)CC6)nc4c3F)c12 (mixture of isomers)	42.2	12.6	> 5000	> 5	–
[2H]C1([2H])CCC2(C([2H])([2H])Oc3nc(N4C[C@H]5CC[C@@H](C4)N5)c4cnc(-c5cc(O)cc6ccc(F)c(C#C)c56)c(F)c4n3)CC(=C)CN12 (some centres not stated)	2	0.8	1680	> 5	–
C#Cc1c(F)ccc2cccc(-c3ncc4c(N5C[C@H]6CC[C@@H](C5)N6)nc(OCC56CCCN5CC(=C(F)F)C6)nc4c3F)c12 (some centres not stated)	–	–	–	–	inhibition (GTPase KRas [6]): Dose-Dependent Effect; inhibition (GTPase KRas [7]): Dose-Dependent Effect; inhibition (GTPase KRas [8]): Dose-Dependent Effect; inhibition (GTPase KRas [9]): Dose-Dependent Effect
[2H]C([2H])(Oc1nc(N[C@H]2CCCC[C@@H]2N(C)C)c2cnc(-c3cc(O)cc4ccc(F)c(C#C)c34)c(F)c2n1)C12CCCN1CC(=C(F)F)C2 (some centres not stated)	> 50	> 50	> 5000	> 5	–
C#Cc1c(F)ccc2cc(O)cc(-c3ncc4c(N5C[C@H]6CC[C@@H](C5)N6)nc(N5C[C@@H]6C[C@H](C5)c5cccc(=O)n5C6)nc4c3F)c12	> 50	> 50	> 5000	> 5	–
[2H]C([2H])(Oc1nc(N2C[C@H]3CC[C@@H](C2)N3)c2cnc(-c3cc(O)cc4ccc(F)c(C#C)c34)c(F)c2n1)C12CC(=C)CN1CC(=C(F)F)C2 (some centres not stated)	1.1	0.6	960	1.93	–
[2H]C([2H])(Oc1nc(N2C[C@H]3CC[C@@H](C2)N3)c2cnc(-c3cc(O)cc4ccc(F)c(C#C)c34)c(F)c2n1)C12CCCN1CC(=C)C2 (some centres not stated)	3.8	1.1	948	> 5	–
